Data published in US11071697B2, “Metal-carbon structure hybrid formulation for dental use in the treatment of dental hypersensitivity, demineralization and cavities” (UNIVERSIDAD DE CHILE, priority 2016, dated 2021).

Columns and labels:
[1] = Solubility of the salt as ammonia metal complex; assay type: physicochemical; settings: impossible in aqueous solution
From the text: In FIG. 6 it is observed the absorption spectrum UV/Visible which confirms this structure.
The shift toward smaller wavelengths gives an account of the formation of ammonia metal complex which is observed in an increase of the solubility of the salt in this solution which allows to reach fluoride concentrations close to 30,000 ppm, which is impossible in aqueous solution.

[2] = tested on: main bacterial species associated with dental caries; assay: In vitro antibacterial capacity, inhibition halos; assay type: cell-based; settings: composition: 25,000 ppm aqueous (Cu(NH3)6)F2 ammonia with 0.002 g/ml graphite oxide; FIG. 1
From the text: FIG. 1. […] The dark zone corresponds to the area where there is no bacterial growth. […] A) Chlorhexidine, B) Silver Diamine Fluorine, C) Silane Fluorine, D) Composition of the Invention. […] These tests have been performed on the main bacterial species associated with dental caries.

[3] = tested on: (TPH1) human cells; assay: Cell viability by mitochondrial activity assay (MTT); assay type: cell-based; settings: FIG. 2
From the text: FIG. 2. Cell viability assay using mitochondrial activity technique (MTT). THP1 cell type.

Question: With `N.N.N.N.N.N.[Cu+2].[F-].[F-]` [Cu(NH3)6F2] as the compound, how does the “fluoride concentrations reached in ammonia solution” value [1] read?
Answer: ~30,000 ppm

Question: For `[H]/N=C(\N/C(=N/[H])NCCCCCCNC(=N)NC(=N)Nc1ccc(Cl)cc1)Nc1ccc(Cl)cc1` [chlorhexidine], which “areas of inhibition halos” value [2] is on record?
Answer: 659 mm^2

Question: What about the “toxicity (in words)” value [3] of the same compound?
Answer: a degree of toxicity
